Assay results: patent US10750743B2, “Pyridazinone herbicides” (E.I. DU PONT DE NEMOURS AND COMPANY, priority 2015, dated 2020)

Tests used:
Assay type in all cases: in vivo
[1] = system: pigweed (Amaranthus retroflexus); test: Test A postemergence application, visual injury rating
How it was run: (§1)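 Compounds in a surfactant-containing solvent were applied as a directed soil spray preemergence, or postemergence to plants 2-10 cm tall at the one- to two-leaf stage, in loam-sand blend. After about 10 d in the greenhouse, injury was rated visually against untreated controls on a 0-100 scale (100 = complete control).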

corn (Zea mays) = test: as above
How it was run: as §1

[2] = system: ryegrass, It. (Italian ryegrass, Lolium multiflorum); test: as above
How it was run: as §1

kochia (Kochia scoparia) [3] = test: as above
How it was run: as §1

[4] = system: galium (catchweed bedstraw, Galium aparine); test: as above
How it was run: as §1

Foxtail, Green [5] = test: as above
How it was run: as §1

[6] = system: ragweed (common ragweed, Ambrosia elatior); test: as above
How it was run: as §1

[7] = system: barnyardgrass (Echinochloa crus-galli); test: as above; conditions: 0 to 100 scale, 0 no effect, 100 complete control
How it was run: as §1

[8] = system: wheat (Triticum aestivum); test: as above
How it was run: as §1

[9] = system: blackgrass (Alopecurus myosuroides); test: as above; conditions: 0 to 100 scale, 0 no effect, 100 complete control
How it was run: as §1

rice (Oryza sativa) = test: Test B flooded paddy test, visual rating; conditions: Flood, 250 g ai/ha, applied to paddy water, rated after 13 to 15 d
How it was run: (§2)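 Plants grown to the 2-leaf stage. At treatment, pots were flooded to 3 cm above the soil, compound was applied directly to the paddy water, and that depth was held throughout. After 13 to 15 d in the greenhouse, response was rated visually against controls on a 0 (no effect) to 100 (complete control) scale.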

[10] = system: barnyardgrass (Echinochloa crus-galli); test: Test B flooded paddy test, visual rating; conditions: Flood, 250 g ai/ha, applied to paddy water, rated after 13 to 15 d
How it was run: as §2

[11] = system: sedge, umbrella (small-flower umbrella sedge, Cyperus difformis); test: Test B flooded paddy test, visual rating; conditions: Flood, 250 g ai/ha, applied to paddy water, rated after 13 to 15 d
How it was run: as §2

[12] = system: ducksalad (Heteranthera limosa); test: Test B flooded paddy test, visual rating; conditions: Flood, 250 g ai/ha, applied to paddy water, rated after 13 to 15 d
How it was run: as §2

[13] = system: pigweed (Amaranthus retroflexus); test: Test A preemergence, directed soil spray, visual injury rating; conditions: 0 is no effect, 100 is complete control
How it was run: as §1

[14] = system: ryegrass, It. (Italian ryegrass, Lolium multiflorum); test: as above; conditions: 0 is no effect, 100 is complete control
How it was run: as §1

kochia (Kochia scoparia) [15] = test: as above; conditions: 0 is no effect, 100 is complete control
How it was run: as §1

Foxtail, Green [16] = test: as above; conditions: 0 is no effect, 100 is complete control
[17] = system: ragweed (common ragweed, Ambrosia elatior); test: as above; conditions: 0 is no effect, 100 is complete control
How it was run: as §1

[18] = system: barnyardgrass (Echinochloa crus-galli); test: as above; conditions: 0 is no effect, 100 is complete control
How it was run: as §1

[19] = 31 g ai/ha, 0 is no effect, 100 is complete control
[20] = 125 g ai/ha, 0 to 100 scale, 0 no effect, 100 complete control

Cc1nn(C)c(=O)c(-c2c(Br)ccc3c2cnn3C)c1O [Compound 65]
0: Plant response rating (0 to 100 scale), Pigweed [1, 19] | Pigweed plant response rating [1, 20] | Plant response rating (0 to 100 scale), Corn (corn (Zea mays); [19]) | Corn plant response rating (corn (Zea mays); [20]) | Plant response rating (0 to 100 scale), Ryegrass, It. [2, 19] | Ryegrass, It. plant response rating [2, 20] | Plant response rating (0 to 100 scale), Kochia (kochia (Kochia scoparia) [3]; [19]) | Kochia plant response rating (kochia (Kochia scoparia) [3]; [20]) | Plant response rating (0 to 100 scale), Galium [4, 19] | Galium plant response rating [4, 20] | Plant response rating (0 to 100 scale), Foxtail, Green (Foxtail, Green [5]; [19]) | Foxtail, Green plant response rating (Foxtail, Green [5]; [20]) | Plant response rating (0 to 100 scale), Ragweed [6, 19] | Ragweed plant response rating [6, 20] | Barnyardgrass plant response rating ([7]; 31 g ai/ha) | Barnyardgrass plant response rating ([7]; 125 g ai/ha) | Plant response rating (0 to 100 scale), Wheat [8, 19] | Wheat plant response rating [8, 20] | Blackgrass plant response rating ([9]; 31 g ai/ha) | Blackgrass plant response rating ([9]; 125 g ai/ha) | Rice plant response rating (0 to 100 scale, 0 is no effect, 100 is complete control) (rice (Oryza sativa)) | Barnyardgrass plant response rating (0 to 100 scale, 0 is no effect, 100 is complete control) [10] | Sedge, Umbrella plant response rating (0 to 100 scale, 0 is no effect, 100 is complete control) [11] | Ducksalad plant response rating (0 to 100 scale, 0 is no effect, 100 is complete control) [12] | Plant response rating (0 to 100 scale), Pigweed ([13]; 31 g ai/ha) | Plant response rating (0 to 100 scale), Pigweed ([13]; 125 g ai/ha) | Plant response rating (0 to 100 scale), Ryegrass, It. ([14]; 31 g ai/ha) | Plant response rating (0 to 100 scale), Ryegrass, It. ([14]; 125 g ai/ha) | Plant response rating (0 to 100 scale), Kochia (kochia (Kochia scoparia) [15]; 31 g ai/ha) | Plant response rating (0 to 100 scale), Kochia (kochia (Kochia scoparia) [15]; 125 g ai/ha) | Plant response rating (0 to 100 scale), Foxtail, Green (Foxtail, Green [16]; 31 g ai/ha) | Plant response rating (0 to 100 scale), Foxtail, Green (Foxtail, Green [16]; 125 g ai/ha) | Plant response rating (0 to 100 scale), Ragweed ([17]; 31 g ai/ha) | Plant response rating (0 to 100 scale), Ragweed ([17]; 125 g ai/ha) | Plant response rating (0 to 100 scale), Barnyardgrass ([18]; 31 g ai/ha) | Plant response rating (0 to 100 scale), Barnyardgrass ([18]; 125 g ai/ha)
